Values after ≈ are worked out from the molar mass of the structure shown. Where two headings read alike, the source gives them in different places.
How the values were obtained:
E. coli ΔacrB (JW0451-2) = assay: Antibacterial activity against E. coli ΔacrB; assay type: cell-based; settings: Escherichia coli, read-out: E. coli ΔacrB (JW0451-2) MIC
[1] = test system: CHO-K1 (chinese hamster ovary cells); assay: Cytotoxicity assay (MTT, 5 d) on CHO-K1; assay type: cell-based; settings: Cricetulus griseus, CHO-K1, 120 h
Experimental: (§1) Cytotoxicity assay: A549 (human lung carcinoma cell line; ACC 107) and CHO-K1 (chinese hamster ovary cells; ACC 110) were obtained from the German Collection of Microorganisms and Cell Cultures (DSMZ) and cultured under the conditions recommended by the depositor. Cells were propagated in Dulbeccos’s Modified Eagle’s Medium (DMEM) and Ham’s F12 medium, respectively, supplemented with 10% fetal bovine serum (FBS), and seeded at 6×10^3 cells per well of 96-well plates in 120 μL of complete medium. After 2 h of equilibration (37 °C, 5% CO2), the cells were treated with a serial dilution of cytochalasins in 60 µL growth medium. Cytochalasins, doxorubicin as reference, as well as the solvent control were tested as duplicates in two independent experiments. After 5 d of incubation (37 °C, 5% CO2), a total of 20 μL of 5 mg/ml MTT (thiazolyl blue tetrazolium bromide) in phosphate -buffered saline (PBS) were added to each well […]
(§2) and the cells were further incubated for 2 h at 37 °C before the supernatant was discarded.
(§3) Subsequently, the cells were washed with 100 μL of PBS and treated with 100 μl of 2-propanol/10 N HCl (250:1) to dissolve formazan granules. Cell viability was measured as percentage relative to the respective solvent control by measuring the absorbance at 570 nm using a microplate reader (Tecan Infinite M200Pro). GraphPad Prism (version 10.0.3, GraphPad, Boston, MA, USA) was used for sigmoidal curve fitting to determine the IC50 values.

[2] = test system: Staphylococcus aureus Newman; assay: Antibacterial activity against S. aureus Newman; assay type: cell-based; settings: Table S22
[3] = test system: A549 (human lung carcinoma cell line); assay: Cytotoxicity assay (MTT, 5 d) on A549; assay type: cell-based; settings: for IC50: Homo sapiens, A549, 120 h, MTT, 5 d incubation; for Cytotoxic activity against A549 (in words): positive control doxorubicin
Experimental: as §1, §2, §3

in vitro [4] = assay type: in vitro ADME, mouse; settings: 1 μM compound, pooled CD-1 mouse plasma, read-out: Mouse plasma t1/2
Experimental: Plasma stability assays: To determine stability in plasma, the compound (1 μM) was incubated with pooled CD-1 mouse plasma (Neo Biotech, Nanterre, France). Samples were taken by mixing aliquots with 4 volumes of cold internal standard solution (12.5 nM diphenhydramine in 10% methanol/acetonitrile). The plasma stability of procain, propantheline and diltiazem were determined in parallel to confirm the enzymatic activity. Samples were stored on ice until the end of the incubation and precipitated protein was removed by centrifugation (15 min, 4 °C, 4,000 g, two centrifugation steps). Concentration of the remaining test compound at the different time points was analyzed by HPLC-MS/MS (Vanquish Flex coupled to a TSQ Altis Plus, Thermo Fisher, Dreieich, Germany). […]

in vitro [5] = assay type: in vitro ADME, mouse; settings: for microsomal CLint: C57BL/6, mouse, microsomes; for half-life: mouse, read-out: Mouse liver microsome t1/2
Experimental: Assays in liver microsomes: For metabolic stability, the compound (1 μM) was incubated with 0.5 mg/mL pooled mouse (C57BL/6) microsomes (Xenotech, Kansas City, USA), 2 mM NADPH, 10 mM MgCl2 at 37 °C for 120 min on a microplate shaker. The metabolic stability of testosterone, verapamil and ketoconazole were determined in parallel to confirm the enzymatic activity of mouse/rat liver microsomes. The incubation was stopped after defined time points by precipitation of aliquots of the incubation mixture with 2 volumes of cold internal standard solution (15 nM diphenhydramine in 10% methanol/acetonitrile). Samples were stored on ice until the end of the incubation and precipitated protein was removed by centrifugation (15 min, 4 °C, and 4,000 g). Concentration of the remaining test compound at the different time points was analyzed by HPLC-MS/MS (Vanquish Flex coupled to a TSQ Altis Plus, Thermo Fisher, Dreieich, Germany) and used to determine half-life (t1/2). […]

[6] = Table S22, intrinsic clearance calculated from microsomal metabolism data
[7] = Table S22, 1 μM compound, 0.5 mg/mL pooled C57BL/6 microsomes
[8] = Table 1, intrinsic clearance from microsomal metabolism data
[9] = Table 1, 1 μM compound, 0.5 mg/mL pooled C57BL/6 microsomes, 120 min

SMILES | MIC (E. coli ΔacrB (JW0451-2)) [µg/mL] | IC50 ([1]; Table S22, 5 d incubation) [µg/mL] | MIC [2] [µg/mL] | IC50 ([3]; Table S22) [µg/mL] | half-life at 1 μM (in vitro [4]; Table S22) [min] | microsomal CLint (in vitro [5]; [6]) [µL/min/mg] | half-life (in vitro [5]; [7]) [min] | IC50 ([1]; Table 1, 5 d incubation) [µg/mL] | IC50 ([3]; Table 1) [µg/mL] | Cytotoxic activity against A549 (in words) [3] | half-life at 1 μM (in vitro [4]; Table 1) [min] | microsomal CLint (in vitro [5]; [8]) [µL/min/mg] | half-life (in vitro [5]; [9]) [min] | Mouse liver microsome t1/2 (in vitro [5]; [7]) [min]
C[C@H]1C/C=C/[C@H]2[C@@H]3O[C@]3(C)[C@@H](C)[C@H]3[C@H](Cc4ccccc4Br)NC(=O)[C@]32C(=O)C[C@@H](O)[C@@](C)(O)C1=O [Compound 21, o-bromo-19-hydroxy-21-oxocytochalasin Q] | > 64 | 3.04 ± 0.18 (≈ 5.42 µM) | > 64 | 0.79 ± 0.24 (≈ 1.41 µM) | > 240 | 124 ± 9 | 11.2 ± 0.8 | – | – | – | – | – | – | –
CC1=C(C)C2C(Cc3ccccc3)NC(=O)C23C(O)C2OC2C(C)(O)C(=O)C(C)CC=CC3C1O (stereo not shown) [Compound 4, deacetyl-19,20-epoxycytochalasin C] | > 64 | 4.63 ± 4.23 (≈ 9.61 µM) | > 64 | 1.07 (≈ 2.22 µM) | > 240 | 26.2 ± 0.1 | 53.1 ± 0.2 | – | – | – | – | – | – | –
CC(=O)OC1C2OC2C(C)(O)C(=O)C(C)CC=CC2C(O)C(C)=C(C)C3C(Cc4ccccc4)NC(=O)C213 (stereo not shown) [Compound 3, 19,20-epoxycytochalasin C] | > 64 | – | > 64 | – | – | – | – | 0.51 ± 0.27 (≈ 0.974 µM) | 0.34 ± 0.13 (≈ 0.649 µM) | comparable to the positive control | > 240 | 31.6 ± 1.4 | 43.9 ± 2 | –
CC(=O)OC1C2OC2C(C)(O)C(=O)C(C)CC=CC2C3OC3(C)C(C)C3C(Cc4cccc(Br)c4)NC(=O)C213 (stereo not shown) [Compound 18, m-bromo-19,20-epoxycytochalasin Q] | > 64 | – | > 64 | 0.31 ± 0.01 (≈ 0.515 µM) | – | – | – | 0.94 ± 0.21 (≈ 1.56 µM) | 0.19 ± 0.01 (≈ 0.315 µM) | – | > 240 | 77 ± 19 | 19 ± 4 | –
CC(=O)OC1C2OC2C(C)(O)C(=O)C(C)CC=CC2C3OC3(C)C(C)C3C(Cc4cccc(Cl)c4)NC(=O)C213 (stereo not shown) [Compound 14, m-chloro-19,20-epoxycytochalasin Q] | > 64 | 0.69 ± 0.07 (≈ 1.24 µM) | > 64 | 0.11 ± 0.05 (≈ 0.197 µM) | > 240 | 45.7 ± 1.6 | 30.4 ± 1.1 | – | – | – | – | – | – | –
CC(=O)OC1C2OC2C(C)C(=O)C(C)CC=CC2C3OC3(C)C(C)C3C(Cc4cccc(Cl)c4)NC(=O)C213 (stereo not shown) [Compound 16, m-chloro-18-desoxy-19,20-epoxycytochalasin Q] | > 64 | 3.13 ± 2.94 (≈ 5.77 µM) | > 64 | 1.02 ± 0.13 (≈ 1.88 µM) | – | – | – | 0.41 ± 0.1 (≈ 0.756 µM) | 0.08 ± 0.02 (≈ 0.148 µM) | – | > 240 | 984 ± 105 | 1.4 ± 0.1 | –
CC1CC=CC2C3OC3(C)C(C)C3C(Cc4cccc(Br)c4)NC(=O)C23C(O)C2OC2C(C)(O)C1=O (stereo not shown) [Compound 19, m-bromo-deacetyl-19,20-epoxycytochalasin Q] | > 64 | 0.63 ± 0.24 (≈ 1.12 µM) | > 64 | > 37 | > 240 | 60 ± 4 | 23.1 ± 1.5 | – | – | – | – | – | – | –
CC(=O)OC1C(C)=C(C)C2C(Cc3ccccc3)NC(=O)C23C1C=CCC(C)C(=O)C(C)(O)C1OC1C3OC(C)=O (stereo not shown) [Compound 23, 7-acetyl-19,20-epoxycytochalasin C] | > 64 | – | > 64 | – | – | – | – | 15.7 ± 3.05 (≈ 27.7 µM) | > 37 | pronounced reduced activity | > 240 | 231 ± 36 | 6.1 ± 1 | –
CC(=O)OC1C2OC2C(C)(O)C(=O)C(C)CC=CC2C(O)C3(C)OC3(C)C3C(Cc4ccccc4)NC(=O)C213 (stereo not shown) [Compound 27, 19,20-epoxycytochalasin N] | > 64 | – | > 64 | – | – | – | – | 10.6 ± 1.42 (≈ 19.6 µM) | 0.84 ± 0.04 (≈ 1.56 µM) | – | 133 ± 9 | < 11.6 | > 120 | >120
CC1CC=CC2C3OC3(C)C(C)C3C(Cc4ccccc4Br)NC(=O)C23C(=O)C2OC2C(C)(O)C1=O (stereo not shown) [Compound 20, o-bromo-19,20-epoxy-21-oxocytochalasin Q] | > 64 | 1.38 ± 0.04 (≈ 2.47 µM) | > 64 | 0.62 ± 0.04 (≈ 1.11 µM) | > 240 | 234 ± 28 | 6 ± 0.7 | – | – | – | – | – | – | –
C=C1C(C)C2C(Cc3ccccc3)NC(=O)C23C(C=CCC(C)C(=O)C(C)(O)C2OC2C3OC(C)=O)C1O (stereo not shown) [Compound 9, 19,20-epoxycytochalasin D] | > 64 | – | > 64 | – | – | – | – | 10.3 ± 5.07 (≈ 19.8 µM) | – | – | > 240 | 35 ± 3 | 40 ± 3.7 | –
CC1CC=CC2C3OC3(C)C(C)C3C(Cc4cccc(Cl)c4)NC(=O)C23C(O)C2OC2C(C)(O)C1=O (stereo not shown) [Compound 15, m-chloro-deacetyl-19,20-epoxycytochalasin Q] | > 64 | – | > 64 | 0.08 ± 0.03 (≈ 0.155 µM) | – | – | – | 0.81 ± 0.1 (≈ 1.57 µM) | 0.04 ± 0.03 (≈ 0.0775 µM) | lower nanomolar activities | > 240 | 39 ± 3 | 36 ± 3 | –
CC1CC=CC2C3OC3(C)C(C)C3C(Cc4ccccc4)NC(=O)C23C(O)C2OC2C(C)C1=O (stereo not shown) [Compound 1, deacetyl-18-desoxy-19,20-epoxycytochalasin Q] | > 64 | 1.21 ± 0.31 (≈ 2.6 µM) | > 64 | 0.32 ± 0.1 (≈ 0.687 µM) | > 240 | 102 ± 13 | 13.8 ± 1.8 | – | – | – | – | – | – | –
CC(=O)OC1C2OC2C(C)(O)C(=O)C(C)CC=CC2C3OC3(C)C(C)C3C(Cc4ccccc4)NC(=O)C213 (stereo not shown) [Compound 6, 19,20-epoxycytochalasin Q] | > 64 | 0.72 ± 0.3 (≈ 1.38 µM) | > 64 | 0.14 ± 0.02 (≈ 0.267 µM) | > 240 | 97 ± 24 | 15 ± 4 | – | – | – | – | – | – | –
CC1=C(C)C2C(Cc3cccc(Br)c3)NC(=O)C23C(O)C2OC2C(C)(O)C(=O)C(C)CC=CC3C1O (stereo not shown) [Compound 17, m-bromo-deacetyl-19,20-epoxycytochalasin C] | > 64 | – | > 64 | 0.19 ± 0.02 (≈ 0.339 µM) | – | – | – | 0.49 ± 0.12 (≈ 0.874 µM) | 0.14 ± 0.02 (≈ 0.25 µM) | lower nanomolar activities | > 240 | 43 ± 4 | 32 ± 3 | –
CC(=O)O[C@@H]1/C=C/[C@@](C)(O)C(=O)[C@@H](C)C/C=C/[C@H]2[C@@H]3O[C@]3(C)[C@@H](C)[C@H]3[C@H](Cc4cccc(Cl)c4)NC(=O)[C@@]312 [Compound 13, m-chloro-cytochalasin Q] | > 64 | 0.41 ± 0.06 (≈ 0.756 µM) | > 64 | 0.14 ± 0.02 (≈ 0.258 µM) | > 240 | 95 ± 15 | 15 ± 3 | – | – | – | – | – | – | –
C#CCCC1(CCC(=O)OC2C(C)=C(C)C3C(Cc4ccccc4)NC(=O)C34C2C=CCC(C)C(=O)C(C)(O)C2OC2C4OC(C)=O)N=N1 (stereo not shown) [Compound 25, 7-diazirin-19,20-epoxycytochalasin C] | > 64 | – | > 64 | – | – | – | – | 14.2 ± 1.93 (≈ 21.2 µM) | 24.9 (≈ 37.1 µM) | pronounced reduced activity | > 240 | 907 ± 388 | 1.7 ± 0.6 | –
COc1cccc2c1C(=O)c1c(O)c3c(c(O)c1C2=O)C[C@@](O)(C(=O)CO)C[C@@H]3O[C@H]1C[C@H](N)[C@H](O)[C@H](C)O1 [doxorubicin, reference compound] | – | – | – | – | – | – | – | – | 0.3 (≈ 0.552 µM) | – | – | – | – | –

Source: publication PMC12848680, “Microbial Cross-Talk: Unlocking the Cytochalasin Diversity from a Termite-Associated Xylaria” (JACS Au, 2025)
